This is an account of results in patent US8951993B2, “Phosphorus containing compounds as protein kinase inhibitors” (Jiangsu Hansoh Pharmaceutical Co., Ltd., priority 2011, dated 2015).

Where two headings read alike, the source gives them in different places. A value given as a limit tells only on which side of the number the result lay.

The target in one data set is T1, NPM1-ALK (Homo sapiens, UniProt Q9UM73).
T1 construct: purchased Carna Biosciences (Chuo-ku, Kobe, Japan); the other entry of the earlier key: NPM1 (P06748, Nucleophosmin)
Put plainly: Off-chip mobility shift assay (Carna Biosciences), NPM1-ALK. It is filed as biochemical. As for the experimental part: (§1) The activities of ALK wild type, its mutant F1174L, R1275Q, L1196M and EML4-ALK, NPM1-ALK were also determined using off-chip mobility shift assay at Carna Biosciences (Chuo-ku, Kobe, Japan). In brief, 5 μL of ×4 compound solution, 5 μL of ×4 substrate/ATP/metal solution and 10 μL of ×2 kinase solution were prepared with assay buffer (20 mM HEPES, 0.01% Triton X-100, 2 mM DTT, pH 7.5) and mixed and incubated in a well of polypropylene 384 well microplate for 1 or 5 hours (depending on the enzyme). The ATP concentration used in the reaction was 50 μM for ALK wild type, F1174L mutant, EML4-ALK and NPM1-ALK, and 100 μM for R1275Q and 72 μM for L1196M. An aliquot of 60 μL of termination buffer (QuickScout Screening Assist MSA, Carna Biosciences) was added to each well to terminate the reactions. The reaction mixture was applied to LabChip3000 system (Caliper Life Science), and the product and substrate peptide peaks were separated and quantitated. The kinase reaction was evaluated by the product ratio calculated from peak heights of product (P) and substrate (S) peptides (P/(P+S)). IC50 value was calculated from concentration vs. % Inhibition curves by fitting to a four parameter logistic curve.

In data set [1] the target is T2, ALK (Homo sapiens, UniProt Q9UM73). Put plainly: Inhibition of ALK phosphorylation (sandwich ELISA, pY1604) in Karpas299 cells. It counts as cell-based. Also noted: NPM1 portion (fusion partner, nucleophosmin, P06748); host or cells: Karpas299; SU-DHL-1; the other entry of the earlier key: NPM1 (P06748, Nucleophosmin). To be noted: 1 hour, serum-free. As for the experimental part: (§2) Karpas299 and SU-DHL-1 cells were purchased from Deutsche Sammlung von Mikroorganismen and Zellkulturen (Germany). H2228 was purchased from American Type Culture Collection (USA). All cells were cultured in the recommended medium and serum concentration. Cells were maintained at 37° C. in a humidified atmosphere with 5% CO2. For ALK kinase phosphorylation, cells were seeded in 96-well plates overnight in medium supplemented with 10% fetal bovine serum […]. After 24 hours, the medium was removed and cells were cultured in serum-free medium at 37° C. in the presence of various concentrations of the test articles for 1 hour. After incubation with the tested articles, cells were washed once with HBSS supplemented with 1 mM Na3VO4 and protein lysates were generated. Subsequently, phosphorylation of ALK was assessed by a sandwich ELISA method using an immobilized anti-total-ALK antibody and an anti-phospho-ALK antibody (pY1604) as a detection antibody. IC50 value was calculated using median-effect method. (Chou 2006).
Target sequence in this assay (Q9UM73 with tags, fused parts or gaps): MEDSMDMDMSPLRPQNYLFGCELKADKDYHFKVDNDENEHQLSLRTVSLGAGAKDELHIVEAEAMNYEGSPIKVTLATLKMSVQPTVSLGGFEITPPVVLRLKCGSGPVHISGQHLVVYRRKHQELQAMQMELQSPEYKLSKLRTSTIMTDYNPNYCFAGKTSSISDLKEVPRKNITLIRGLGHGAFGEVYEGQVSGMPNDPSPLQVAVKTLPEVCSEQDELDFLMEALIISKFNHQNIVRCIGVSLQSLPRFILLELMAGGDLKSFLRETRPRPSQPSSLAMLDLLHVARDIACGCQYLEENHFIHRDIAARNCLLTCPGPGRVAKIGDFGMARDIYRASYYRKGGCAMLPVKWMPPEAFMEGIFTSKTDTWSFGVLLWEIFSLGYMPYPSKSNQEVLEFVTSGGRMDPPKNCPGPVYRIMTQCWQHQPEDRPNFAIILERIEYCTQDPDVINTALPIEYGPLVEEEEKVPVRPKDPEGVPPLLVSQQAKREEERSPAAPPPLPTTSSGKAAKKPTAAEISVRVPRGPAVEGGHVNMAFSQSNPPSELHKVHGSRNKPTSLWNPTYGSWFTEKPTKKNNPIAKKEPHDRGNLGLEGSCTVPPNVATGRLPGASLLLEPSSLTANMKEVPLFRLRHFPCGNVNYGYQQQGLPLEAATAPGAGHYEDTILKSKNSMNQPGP
A general note: In an ELISA, binding on a coated surface is turned into a signal by an enzyme label.

The target in data set [2] is T2, ALK. Put plainly: Inhibition of ALK phosphorylation (sandwich ELISA, pY1604) in SU-DHL-1 cells. The settings on record: 1 hour, serum-free. It is filed as cell-based. Further details: NPM1 portion (fusion partner, nucleophosmin, P06748); host or cells: Karpas299; SU-DHL-1; the other entry of the earlier key: NPM1 (P06748, Nucleophosmin). The method, then:
as §2

A further data set addresses T3, ALK wild type (Homo sapiens, UniProt Q9UM73).
T3 construct: purchased Carna Biosciences (Chuo-ku, Kobe, Japan)
Put plainly: Off-chip mobility shift assay (Carna Biosciences), ALK wild type. It is filed as biochemical. The method, then:
as §1

The subject of the next data set is H2228. Kind of data set: Cell proliferation assay (MTS / BrdU), H2228. It counts as cell-based. The settings on record: Homo sapiens, NCI-H2228; 72 hours, 2% FBS. The method, then: as §2
(§3) For cell proliferation assay, cells were seeded in 96-well pates at low density at 37° C. in medium supplemented with 10% FBS and after 24 hours were switched to low serum medium (2% FBS). Cells were further incubated in the presence of the test articles at various concentrations at 37° C. for 72 hours. Two assays were employed to determine the relative cell numbers. One is a 3-(4,5-dimethylthiazol-2-yl)-5-(3-carboxymethoxyphenyl)-2-(4-sulfophenyl)-2H-tetrazolium (MTS) assay using a CellTiter 96® Aqueous Non-Radioactive Cell Proliferation kit (Promega), and the other is a BrdU incorporation assay using a DELFIA® Cell Proliferation Kit (Perkin Elmer). IC50 value was calculated using median-effect method (Chou 2006).

The next data set deals with T4, ALK mutant R1275Q (Homo sapiens, UniProt Q9UM73, R1275Q).
T4 construct: purchased Carna Biosciences (Chuo-ku, Kobe, Japan)
Kind of data set: Off-chip mobility shift assay (Carna Biosciences), ALK R1275Q. It counts as biochemical. The method, then:
as §1

The next data set has as its target T5, ALK mutant L1196M (Homo sapiens, UniProt Q9UM73, L1196M).
T5 construct: purchased Carna Biosciences (Chuo-ku, Kobe, Japan)
Put plainly: Off-chip mobility shift assay (Carna Biosciences), ALK L1196M. It is filed as biochemical. As for the experimental part:
as §1

In the next data set the target is T6, EML4-ALK (Homo sapiens, UniProt Q9UM73).
T6 construct: purchased Carna Biosciences (Chuo-ku, Kobe, Japan); the other entry of the earlier key: EML4 (Q9HC35, Echinoderm microtubule-associated protein-like 4)
Kind of data set: Off-chip mobility shift assay (Carna Biosciences), EML4-ALK. It counts as biochemical. The method, then: as §1

In data set [3] the target is T2, ALK. Kind of data set: Inhibition of ALK phosphorylation (sandwich ELISA, pY1604), cell line not given. Also noted: fused on or other part: Q9HC35 (Echinoderm microtubule-associated protein-like 4). To be noted: 1 hour, serum-free. It is filed as cell-based. As for the experimental part:
as §2
Target sequence in this assay (Q9UM73 1058-1620 limits assumed): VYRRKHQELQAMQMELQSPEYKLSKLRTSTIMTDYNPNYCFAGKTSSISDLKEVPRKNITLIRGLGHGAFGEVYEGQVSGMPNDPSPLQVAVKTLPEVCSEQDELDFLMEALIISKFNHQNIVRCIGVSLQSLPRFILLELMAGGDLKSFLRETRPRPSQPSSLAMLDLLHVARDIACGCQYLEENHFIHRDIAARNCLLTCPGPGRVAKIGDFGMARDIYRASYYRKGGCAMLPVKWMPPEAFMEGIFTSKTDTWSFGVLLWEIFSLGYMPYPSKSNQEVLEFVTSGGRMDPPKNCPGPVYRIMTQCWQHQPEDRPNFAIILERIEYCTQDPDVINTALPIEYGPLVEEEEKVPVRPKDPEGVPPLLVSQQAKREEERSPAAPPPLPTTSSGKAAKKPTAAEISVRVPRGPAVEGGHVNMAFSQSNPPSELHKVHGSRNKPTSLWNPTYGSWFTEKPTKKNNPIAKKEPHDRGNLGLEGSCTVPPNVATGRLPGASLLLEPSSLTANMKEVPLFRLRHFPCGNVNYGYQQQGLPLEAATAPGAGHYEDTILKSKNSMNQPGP

A further data set relates to Karpas299. Put plainly: Cell proliferation assay (MTS / BrdU), Karpas299. The settings on record: Homo sapiens, KARPAS-299; 72 hours, 2% FBS. It counts as cell-based. As for the experimental part:
as §2, §3

A further data set has as its system SU-DHL-1. Put plainly: Cell proliferation assay (MTS / BrdU), SU-DHL-1. It counts as cell-based. The settings on record: Homo sapiens, 72 hours, 2% FBS. As for the experimental part: as §2, §3
In data set [4] the test system is lung cancer cell line H2228. Put plainly: H2228 xenograft studies in athymic mice. It counts as in vivo, athymic mice (nude/nud mouse). From the text:
Xenograft model was developed in athymic mice (nude/nud mouse) with lung cancer cell line H2228 purchased from the American Type Culture Collection Company (Manassas, Va., USA). In brief, H2228 cells (1×10^7) were implanted s.c. into the hind flank region of each mouse and allowed to grow to the designated size (c.a. 150-200 mm^3) before administration of the tested articles. The tested articles were given orally at various dose levels twice daily for 10-14 days. Tumor volume and body weight were measured during the experiments. Tumor regression values were determined using the standard approach.

The next data set addresses T7, ALK mutant F1174L (Homo sapiens, UniProt Q9UM73, F1174L).
T7 construct: purchased Carna Biosciences (Chuo-ku, Kobe, Japan)
Kind of data set: Off-chip mobility shift assay (Carna Biosciences), ALK F1174L. It counts as biochemical. The method, then: as §1

The next data set has as its target cytochrome P450 3A4 (Homo sapiens, UniProt P08684). The settings on record: reported; causing clinical drug-drug interactions; cited from earlier work.

Usually IC50 stands for the concentration that gives 50% inhibition.

T4 sequence (Q9UM73 19-1620 R1275Q): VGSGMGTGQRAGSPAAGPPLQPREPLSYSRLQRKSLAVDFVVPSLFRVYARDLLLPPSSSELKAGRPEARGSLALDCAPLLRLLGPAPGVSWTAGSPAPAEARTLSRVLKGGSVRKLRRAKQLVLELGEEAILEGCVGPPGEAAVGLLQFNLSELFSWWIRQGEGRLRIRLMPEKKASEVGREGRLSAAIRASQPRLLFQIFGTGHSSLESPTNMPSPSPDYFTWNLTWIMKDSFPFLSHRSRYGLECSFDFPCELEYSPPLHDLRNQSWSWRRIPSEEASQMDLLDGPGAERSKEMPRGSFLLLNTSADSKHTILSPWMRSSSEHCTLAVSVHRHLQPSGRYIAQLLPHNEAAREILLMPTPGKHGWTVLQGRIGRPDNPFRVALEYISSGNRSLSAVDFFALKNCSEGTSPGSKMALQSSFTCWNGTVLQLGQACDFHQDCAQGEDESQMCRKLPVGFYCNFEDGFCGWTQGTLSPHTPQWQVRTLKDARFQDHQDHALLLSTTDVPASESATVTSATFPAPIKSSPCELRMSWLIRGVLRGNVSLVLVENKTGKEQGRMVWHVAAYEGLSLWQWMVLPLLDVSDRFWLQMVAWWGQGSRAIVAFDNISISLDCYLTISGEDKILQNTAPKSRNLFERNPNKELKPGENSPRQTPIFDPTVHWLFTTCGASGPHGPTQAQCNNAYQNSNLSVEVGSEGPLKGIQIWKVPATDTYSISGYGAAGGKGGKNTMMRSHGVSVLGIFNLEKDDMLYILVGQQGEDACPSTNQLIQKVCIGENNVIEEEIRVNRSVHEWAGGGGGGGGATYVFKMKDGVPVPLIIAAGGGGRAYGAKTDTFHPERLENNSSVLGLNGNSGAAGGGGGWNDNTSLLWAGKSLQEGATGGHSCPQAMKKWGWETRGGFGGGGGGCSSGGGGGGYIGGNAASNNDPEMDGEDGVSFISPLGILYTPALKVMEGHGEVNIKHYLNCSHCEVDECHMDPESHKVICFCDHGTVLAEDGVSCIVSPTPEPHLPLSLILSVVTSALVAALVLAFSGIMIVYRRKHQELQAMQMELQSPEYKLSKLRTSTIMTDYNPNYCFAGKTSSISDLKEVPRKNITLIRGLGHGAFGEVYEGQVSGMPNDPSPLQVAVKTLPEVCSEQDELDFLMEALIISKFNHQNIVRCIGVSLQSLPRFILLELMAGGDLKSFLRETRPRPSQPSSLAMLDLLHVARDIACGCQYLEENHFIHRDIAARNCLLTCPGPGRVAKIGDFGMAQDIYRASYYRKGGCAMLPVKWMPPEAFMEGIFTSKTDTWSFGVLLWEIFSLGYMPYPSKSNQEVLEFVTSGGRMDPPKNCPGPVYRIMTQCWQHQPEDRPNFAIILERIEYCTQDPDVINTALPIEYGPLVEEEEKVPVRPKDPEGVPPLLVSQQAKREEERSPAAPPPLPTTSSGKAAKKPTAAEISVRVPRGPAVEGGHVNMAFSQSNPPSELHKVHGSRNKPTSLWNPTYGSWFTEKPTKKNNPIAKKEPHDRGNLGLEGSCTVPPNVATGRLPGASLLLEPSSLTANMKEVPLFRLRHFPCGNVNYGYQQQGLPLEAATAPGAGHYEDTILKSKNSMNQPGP
T5 sequence (Q9UM73 19-1620 L1196M): as the sequence (Q9UM73 19-1620 R1275Q) above, with L1178M, Q1257R counted along it
T3 sequence (Q9UM73 19-1620): as the sequence (Q9UM73 19-1620 R1275Q) above, with Q1257R counted along it
T7 sequence (Q9UM73 19-1620 F1174L): as the sequence (Q9UM73 19-1620 R1275Q) above, with F1156L, Q1257R counted along it
T6 sequence (Q9UM73 with tags, fused parts or gaps): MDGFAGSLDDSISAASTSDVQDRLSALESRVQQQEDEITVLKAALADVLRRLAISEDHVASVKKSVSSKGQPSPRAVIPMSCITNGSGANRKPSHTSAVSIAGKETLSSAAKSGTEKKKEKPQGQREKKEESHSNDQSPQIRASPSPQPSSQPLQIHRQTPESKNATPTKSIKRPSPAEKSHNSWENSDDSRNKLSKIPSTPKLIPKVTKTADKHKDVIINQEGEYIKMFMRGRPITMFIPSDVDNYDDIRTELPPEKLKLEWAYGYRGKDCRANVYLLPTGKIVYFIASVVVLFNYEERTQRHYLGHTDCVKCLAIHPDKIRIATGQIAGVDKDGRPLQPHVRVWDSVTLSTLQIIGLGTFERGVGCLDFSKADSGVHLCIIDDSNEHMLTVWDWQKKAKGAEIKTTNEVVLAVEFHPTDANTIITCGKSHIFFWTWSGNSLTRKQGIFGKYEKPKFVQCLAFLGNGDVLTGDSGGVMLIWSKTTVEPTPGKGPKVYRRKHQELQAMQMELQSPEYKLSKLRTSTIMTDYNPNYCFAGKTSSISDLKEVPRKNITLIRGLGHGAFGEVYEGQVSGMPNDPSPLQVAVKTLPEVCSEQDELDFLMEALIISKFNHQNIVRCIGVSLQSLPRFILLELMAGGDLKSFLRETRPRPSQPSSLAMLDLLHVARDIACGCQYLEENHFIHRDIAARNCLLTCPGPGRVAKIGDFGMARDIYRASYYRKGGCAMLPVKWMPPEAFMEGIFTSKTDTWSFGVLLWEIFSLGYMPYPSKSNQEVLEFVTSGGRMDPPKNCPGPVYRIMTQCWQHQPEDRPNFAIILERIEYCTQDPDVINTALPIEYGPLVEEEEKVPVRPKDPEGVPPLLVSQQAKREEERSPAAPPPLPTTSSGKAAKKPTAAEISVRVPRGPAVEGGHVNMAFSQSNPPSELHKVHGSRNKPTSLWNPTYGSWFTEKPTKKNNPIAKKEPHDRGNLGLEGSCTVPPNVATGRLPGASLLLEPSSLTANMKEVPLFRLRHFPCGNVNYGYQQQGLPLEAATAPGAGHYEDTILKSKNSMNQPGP
cytochrome P450 3A4, sequence (P08684 whole entry): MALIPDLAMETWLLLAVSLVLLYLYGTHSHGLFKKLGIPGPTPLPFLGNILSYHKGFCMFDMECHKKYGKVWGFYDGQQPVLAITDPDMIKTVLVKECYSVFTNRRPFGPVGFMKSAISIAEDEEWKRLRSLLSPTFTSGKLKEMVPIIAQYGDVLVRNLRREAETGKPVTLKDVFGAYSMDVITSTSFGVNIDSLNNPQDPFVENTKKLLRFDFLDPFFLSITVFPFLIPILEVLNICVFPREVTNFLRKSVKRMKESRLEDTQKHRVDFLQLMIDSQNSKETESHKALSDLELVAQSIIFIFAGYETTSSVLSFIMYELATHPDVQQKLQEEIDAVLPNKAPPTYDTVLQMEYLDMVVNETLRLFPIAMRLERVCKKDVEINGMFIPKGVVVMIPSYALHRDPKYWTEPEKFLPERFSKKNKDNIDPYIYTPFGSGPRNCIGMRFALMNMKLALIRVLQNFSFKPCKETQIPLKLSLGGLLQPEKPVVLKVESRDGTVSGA

For `C[C@@H](Oc1cc(-c2ccc(P(C)(C)=O)cc2F)cnc1N)c1c(Cl)ccc(F)c1Cl` [Example 25, 3-[(1R)-1-(2,6-dichloro-3-fluoro-phenyl)ethoxy]-5-(4-dimethylphosphoryl-2-fluoro-phenyl)pyridin-2-amine], the 50% inhibitory concentration (IC50) on NPM1-ALK (footnote #: NPM1-ALK, read-out: IC50 ALK Kinase (# NPM1-ALK)) is less than 100 nM; at NPM1-ALK (mobility shift, ATP 50 μM, read-out: IC50 NPM1-ALK), less than 50 nM; on ALK [1], less than 100 nM; at ALK [2], less than 50 nM; on ALK wild type (footnote #: ALK wild type, read-out: IC50 ALK Kinase (# ALK wild type)) it was less than 100 nM; on ALK wild type (mobility shift, ATP 50 μM, read-out: IC50 ALK wild type) it was less than 50 nM. Besides, the IC50 with H2228 is less than 100 nM; on ALK mutant R1275Q (footnote #: R1275Q, read-out: IC50 ALK Kinase (# mutant R1275Q)) it was less than 100 nM; on ALK mutant R1275Q (mobility shift, ATP 100 μM, read-out: IC50 ALK R1275Q) it was less than 50 nM; on ALK mutant L1196M (footnote #: L1196M, read-out: IC50 ALK Kinase (# mutant L1196M)) it was less than 100 nM; on ALK mutant L1196M (mobility shift, ATP 72 μM, read-out: IC50 ALK L1196M), less than 50 nM; at EML4-ALK (footnote #: EML4-ALK, read-out: IC50 ALK Kinase (# EML4-ALK)), less than 100 nM. The IC50 at EML4-ALK (mobility shift, ATP 50 μM, read-out: IC50 EML4-ALK) was less than 50 nM; at ALK [3] it was less than 50 nM; with Karpas299, less than 100 nM; in the data set on SU-DHL-1 it was less than 100 nM; on ALK mutant F1174L (footnote #: F1174L, read-out: IC50 ALK Kinase (# mutant F1174L)), less than 100 nM; at ALK mutant F1174L (mobility shift, ATP 50 μM, read-out: IC50 ALK F1174L) it was less than 50 nM. Also, the “inhibition of tumor growth compared to the vehicle control” value in data set [4] (6 mg/kg oral BID) stood at 46%; in data set [4] (20 mg/kg oral BID), 73%; in [4] (60 mg/kg oral BID) it was 93%. The “reduced the tumor size” value in [4] (14 days oral dosing at 60 mg/kg (BID)) is “approximately 80%”.
Regarding `C[C@@H](Oc1cc(-c2cnn(C3CCNCC3)c2)cnc1N)c1c(Cl)ccc(F)c1Cl` [crizotinib], at cytochrome P450 3A4, the “cytochrome P450 3A4 inhibition” value was “time-dependent cytochrome P450 3A4 inhibitor”.
